The values below come from US20230340011A1 (Asteroid Therapeutics, priority 2022, published 2023).

The structures appear in SMILES notation. Like-named read-outs stand apart in the source and are kept apart here.

In this test the target is SREBP-2 (Homo sapiens (Human), UniProt Q12772). The test can be described thus: In vitro assay SREBP-2: PathHunter U2OS SREBP-2 Nuclear Translocation Cell Line, U18666A-stimulated. It is filed as cell-based.
The mark [1] stands for this setting: PathHunter U2OS SREBP-2 nuclear translocation cells, U18666A 10 μM, overnight (16 hours).

A word on the IC50: it is the midpoint of a concentration-inhibition curve. As to `C[C@H](CCC(=O)N1CCC(O)(CO)CC1)[C@H]1CC[C@H]2[C@@H]3CC=C4C[C@@H](O)CC[C@]4(C)[C@H]3CC[C@]12C` [Example 150, (R)-4-((3S,8S,9S,10R,13R,14S,17R)-3-hydroxy-10,13-dimethyl-2,3,4,7,8,9,10,11,12,13,14,15,16,17-tetradecahydro-1H-cyclopenta[a]phenanthren-17-yl)-1-(4-hydroxy-4-(hydroxymethyl)piperidin-1-yl)pentan-1-one], the IC50 under setting [1] was less than 250 nM. The molecule `C[C@H](CCC(=O)N1CCC(O)(CC(F)(F)F)CC1)[C@H]1CC[C@H]2[C@@H]3CC=C4C[C@@H](O)CC[C@]4(C)[C@H]3CC[C@]12C` [Example 152, (R)-4-((3S,8S,9S,10R,13R,14S,17R)-3-hydroxy-10,13-dimethyl-2,3,4,7,8,9,10,11,12,13,14,15,16,17-tetradecahydro-1H-cyclopenta[a]phenanthren-17-yl)-1-(4-hydroxy-4-(2,2,2-trifluoroethyl)piperidin-1-yl) pentan-1-one] had an IC50 under setting [1] of less than 250 nM. Still for that read-out and setting: the figure for `CCN(CC)C(=O)C(=O)O[C@@H](C)[C@H]1CC[C@H]2[C@@H]3CC=C4C[C@@H](O)CC[C@]4(C)[C@H]3CC[C@]12C` [Example 154, (1S)-1-[(1S,3aS,3bS,7S,9aR,9bS,11aS)-7-hydroxy-9a,11a-dimethyl-1H,2H,3H,3aH,3bH,4H,6H,7H,8H,9H,9aH,9bH,10H,11H,11aH-cyclopenta[a]phenanthren-1-yl]ethyl (diethylcarbamoyl)formate] is less than 250 nM; for `COc1cccnc1CC[C@@H](C)[C@H]1CC[C@H]2[C@@H]3CC=C4C[C@@H](O)CC[C@]4(C)[C@H]3CC[C@]12C` [Example 186, (1R,3aS,3bS,7S,9aR,9bS,11aR)-1-[(2R)-4-(3-methoxypyridin-2-yl)butan-2-yl]-9a,11a-dimethyl-1H,2H,3H,3aH,3bH,4H,6H,7H,8H,9H,9aH,9bH,10H,11H,11aH-cyclopenta[a]phenanthren-7-ol] it is less than 250 nM; for `C[C@H](CCC(=O)N1CCC(O)(C2CCC2)CC1)[C@H]1CC[C@H]2[C@@H]3CC=C4C[C@@H](O)CC[C@]4(C)[C@H]3CC[C@]12C` [Example 194, (R)-1-(4-cyclobutyl-4-hydroxypiperidin-1-yl)-4-((3S,8S,9S,10R,13R,14S,17R)-3-hydroxy-10,13-dimethyl-2,3,4,7,8,9,10,11,12,13,14,15,16,17-tetradecahydro-1H-cyclopenta[a]phenanthren-17-yl)pentan-1-one] it is less than 250 nM. For `COC(=O)N1CCN(C(=O)O[C@@H](C)[C@H]2CC[C@H]3[C@@H]4CC=C5C[C@@H](O)CC[C@]5(C)[C@H]4CC[C@]23C)CC1` [Example 237, 1-(1S)-1-[(1S,3aS,3bS,7S,9aR,9bS,11aS)-7-hydroxy-9a,11a-dimethyl-1H,2H,3H,3aH,3bH,4H,6H,7H,8H,9H,9aH,9bH,10H,11H,11aH-cyclopenta[a]phenanthren-1-yl]ethyl 4-methyl piperazine-1,4-dicarboxylate], the IC50 under setting [1] was less than 250 nM. Under setting [1], `CNC(=O)NC[C@@H](C)[C@H]1CC[C@H]2[C@@H]3CC=C4C[C@@H](O)CC[C@]4(C)[C@H]3CC[C@]12C` [Example 239, 1-((S)-2-((3S,8S,9S,10R,13S,14S,17R)-3-hydroxy-10,13-dimethyl-2,3,4,7,8,9,10,11,12,13,14,15,16,17-tetradecahydro-1H-cyclopenta[a]phenanthren-17-yl)propyl)-3-methylurea] had an IC50 of 250 to 1000 nM. Take `COC(=O)NC[C@@H](C)[C@H]1CC[C@H]2[C@@H]3CC=C4C[C@@H](O)CC[C@]4(C)[C@H]3CC[C@]12C` [Example 240, Methyl ((S)-2-((3S,8S,9S,10R,13S,14S,17R)-3-hydroxy-10,13-dimethyl-2,3,4,7,8,9,10,11,12,13,14,15,16,17-tetradecahydro-1H-cyclopenta[a]phenanthren-17-yl)propyl)carbamate]: the IC50 under setting [1] was in the range of 250 to 1000 nM. The same measure, in the same setting: the figure for `C[C@H](OC(=O)N(C)C)[C@H]1CC[C@H]2[C@@H]3CC=C4C[C@@H](O)CC[C@]4(C)[C@H]3CC[C@]12C` [Example 242, (1S)-1-[(1S,3aS,3bS,7S,9aR,9bS,11aS)-7-hydroxy-9a,11a-dimethyl-1H,2H,3H,3aH,3bH,4H,6H,7H,8H,9H,9aH,9bH,10H,11H,11aH-cyclopenta[a]phenanthren-1-yl]ethyl N,N-dimethylcarbamate] is 250 to 1000 nM. Take `CNC(=O)O[C@@H](C)[C@H]1CC[C@H]2[C@@H]3CC=C4C[C@@H](O)CC[C@]4(C)[C@H]3CC[C@]12C` [Example 243, (1S)-1-[(1S,3aS,3bS,7S,9aR,9bS,11aS)-7-hydroxy-9a,11a-dimethyl-1H,2H,3H,3aH,3bH,4H,6H,7H,8H,9H,9aH,9bH,10H,11H,11aH-cyclopenta[a]phenanthren-1-yl]ethyl N-methylcarbamate]: the IC50 is less than 250 nM. `CNC(=O)c1ccnc(OC[C@@H](C)[C@H]2CC[C@H]3[C@@H]4CC=C5C[C@@H](O)CC[C@]5(C)[C@H]4CC[C@]23C)c1` [Example 254, 2-((S)-2-((3S,8S,9S,10R,13S,14S,17R)-3-hydroxy-10,13-dimethyl-2,3,4,7,8,9,10,11,12,13,14,15,16,17-tetradecahydro-1H-cyclopenta[a]phenanthren-17-yl)propoxy)-N-methylisonicotinamide]: the IC50 under setting [1] was less than 250 nM. The same measure, in the same setting: the result for `CNC(=O)c1cccc(OC[C@@H](C)[C@H]2CC[C@H]3[C@@H]4CC=C5C[C@@H](O)CC[C@]5(C)[C@H]4CC[C@]23C)n1` [Example 256, 6-((S)-2-((3S,8S,9S,10R,13S,14S,17R)-3-hydroxy-10,13-dimethyl-2,3,4,7,8,9,10,11,12,13,14,15,16,17-tetradecahydro-1H-cyclopenta[a]phenanthren-17-yl)propoxy)-N-methylpicolinamide] reads 250 to 1000 nM. With `C[C@H](COc1ccc(CO)cn1)[C@H]1CC[C@H]2[C@@H]3CC=C4C[C@@H](O)CC[C@]4(C)[C@H]3CC[C@]12C` [Example 259, (3S,8S,9S,10R,13S,14S,17R)-17-((S)-1-((5-(hydroxymethyl)pyridin-2-yl)oxy)propan-2-yl)-10,13-dimethyl-2,3,4,7,8,9,10,11,12,13,14,15,16,17-tetradecahydro-1H-cyclopenta[a]phenanthren-3-ol], the IC50 under setting [1] lay in the range of 250 to 1000 nM.

For `Cc1ccnc(OC[C@@H](C)[C@H]2CC[C@H]3[C@@H]4CC=C5C[C@@H](O)CC[C@]5(C)[C@H]4CC[C@]23C)c1` [Example 262, (1R,3aS,3bS,7S,9aR,9bS,11aS)-9a,11a-dimethyl-1-[(2S)-1-[(4-methylpyridin-2-yl)oxy]propan-2-yl]-1H,2H,3H,3aH,3bH,4H,6H,7H,8H,9H,9aH,9bH,10H,11H,11aH-cyclopenta[a]phenanthren-7-ol], the IC50 under setting [1] is less than 250 nM.

Take `Cc1ccc(OC[C@@H](C)[C@H]2CC[C@H]3[C@@H]4CC=C5C[C@@H](O)CC[C@]5(C)[C@H]4CC[C@]23C)nc1` [Example 263, (3S,8S,9S,10R,13S,14S,17R)-10,13-dimethyl-17-((S)-1-((5-methylpyridin-2-yl)oxy)propan-2-yl)-2,3,4,7,8,9,10,11,12,13,14,15,16,17-tetradecahydro-1H-cyclopenta[a]phenanthren-3-ol]: the IC50 under setting [1] fell in the range of 250 to 1000 nM.

Consider `CNC(=O)c1ccncc1O[C@@H](C)[C@H]1CC[C@H]2[C@@H]3CC=C4C[C@@H](O)CC[C@]4(C)[C@H]3CC[C@]12C` [Example 265, 3-((S)-1-((3S,8S,9S,10R,13S,14S,17S)-3-hydroxy-10,13-dimethyl-2,3,4,7,8,9,10,11,12,13,14,15,16,17-tetradecahydro-1H-cyclopenta[a]phenanthren-17-yl)ethoxy)-N-methylisonicotinamide], for which the IC50 under setting [1] fell in the range of 1000 to 10000 nM. On to `CNC(=O)c1cncc(O[C@@H](C)[C@H]2CC[C@H]3[C@@H]4CC=C5C[C@@H](O)CC[C@]5(C)[C@H]4CC[C@]23C)c1` [Example 266, 5-((S)-1-((3S,8S,9S,10R,13S,14S,17S)-3-hydroxy-10,13-dimethyl-2,3,4,7,8,9,10,11,12,13,14,15,16,17-tetradecahydro-1H-cyclopenta[a]phenanthren-17-yl)ethoxy)-N-methylnicotinamide], for which the IC50 under setting [1] was in the range of 250 to 1000 nM.

Under setting [1], `CNC(=O)c1ncccc1O[C@@H](C)[C@H]1CC[C@H]2[C@@H]3CC=C4C[C@@H](O)CC[C@]4(C)[C@H]3CC[C@]12C` [Example 267, 3-((S)-1-((3S,8S,9S,10R,13S,14S,17S)-3-hydroxy-10,13-dimethyl-2,3,4,7,8,9,10,11,12,13,14,15,16,17-tetradecahydro-1H-cyclopenta[a]phenanthren-17-yl)ethoxy)-N-methylpicolinamide] had an IC50 of 250 to 1000 nM. Regarding `C[C@H](Oc1cnccc1CO)[C@H]1CC[C@H]2[C@@H]3CC=C4C[C@@H](O)CC[C@]4(C)[C@H]3CC[C@]12C` [Example 268, (3S,8S,9S,10R,13S,14S,17S)-17-((S)-1-((4-(hydroxymethyl)pyridin-3-yl)oxy)ethyl)-10,13-dim ethyl-2,3,4,7,8,9,10,11,12,13,14,15,16,17-tetradecahydro-1H-cyclopenta[a]phenanthren-3-ol], the IC50 under setting [1] was in the range of 250 to 1000 nM. In turn, `C[C@H](Oc1cncc(CO)c1)[C@H]1CC[C@H]2[C@@H]3CC=C4C[C@@H](O)CC[C@]4(C)[C@H]3CC[C@]12C` [Example 269, (3S,8S,9S,10R,13S,14S,17S)-17-((S)-1-((5-(hydroxymethyl)pyridin-3-yl)oxy)ethyl)-10,13-dim ethyl-2,3,4,7,8,9,10,11,12,13,14,15,16,17-tetradecahydro-1H-cyclopenta[a]phenanthren-3-ol] registered an IC50 under setting [1] of 250 to 1000 nM.

Under setting [1], `C[C@H](Oc1cccnc1CO)[C@H]1CC[C@H]2[C@@H]3CC=C4C[C@@H](O)CC[C@]4(C)[C@H]3CC[C@]12C` [Example 270, (3S,8S,9S,10R,13S,14S,17S)-17-((S)-1-((2-(hydroxymethyl)pyridin-3-yl)oxy)ethyl)-10,13-dim ethyl-2,3,4,7,8,9,10,11,12,13,14,15,16,17-tetradecahydro-1H-cyclopenta[a]phenanthren-3-ol] displayed an IC50 of 250 to 1000 nM.
